Where two headings read alike, the source gives them in different places.
Assays:
[1] = cited from earlier work
in vivo = conditions: male, Locusta migratoria (grasshopper/locust)
[2] = Hemolymph concentration after injection into grasshoppers, measured by LCMS; conditions: male, Locusta migratoria (grasshopper/locust), in vivo
Experimental: 40 μl of a 8.8 mg/ml solution of mianserin in 5% DMSO was injected into 18 grasshoppers, Locusta migratoria (males). After 5 minutes 20 μl of hemolymph was extracted from each locust. A cut was made through the frontal part of the locust head comprising the most frontal parts including the antennae, the compound eyes, the brain and all neural connections between the brain and the antennae and the eyes. The brain was then dissected in saline containing Evans Blue.
2 hemolymph samples were placed in a test tube containing 60 μl of distilled H2O and 200 μl acetonitrile. Each sample was centrifuged for 5 minutes (10000 g at 4° C.).
40 μl of a 8.8 mg/ml solution of mianserin in 5% DMSO was injected into 18 grasshoppers, Locusta migratoria (males). After 15 minutes 20 μl of hemolymph was extracted from each locust. A cut was made through the frontal part of the locust head comprising the most frontal parts including the antennae, the compound eyes, the brain and all neural connections between the brain and the antennae and the eyes. The brain was dissected in saline containing Evans Blue.
40 μl of a 8.8 mg/ml solution of mianserin in 5% DMSO was injected into 18 grasshoppers, Locusta migratoria (males). After 45 minutes 20 μl of hemolymph was extracted from each locust. […]

Compound: NCCc1c[nH]c2ccc(O)cc12 [serotonin]
- penetration of the grasshopper blood brain barrier (BBB), conclusion in words (Locusta migratoria, injection): only penetrates the grasshopper BBB to a very low extend, if any at all
- endogenous level in the brain (concentration in brain supernatant) (no injection, washed in saline, 3 brains in one tube): 20 ng/mL
- BBB penetration in vertebrates, in words [1]: very low BBB penetration
- concentration at 5 min (in vivo; 12.6 µg per insect, average concentration in brain supernatant, 20 μl of 630 μg/ml injected, 5 minutes, washed in saline, neural lamella included, 3 brains per tube): 86.5 ng/mL
- concentration at 5 min ([2]; 12.6 µg per insect): 4700 ng/mL

Compound: CN1CCN2c3ccccc3Cc3ccccc3C2C1 (stereo not drawn) [mianserin]
- penetration of the grasshopper blood brain barrier (BBB), conclusion in words (in vivo): penetrates the blood brain barrier (BBB) in grasshoppers
- factor by which measured brain concentration is increased when the neural lamella is included (male, Locusta migratoria (grasshopper/locust), in vivo, 5 min): 3

Compound: O=C1CC2(CCCC2)CC(=O)N1CCCCN1CCN(c2ncccn2)CC1 [buspirone]
- concentration at 5 min (in vivo; 168 µg per insect): < 20 ng/mL
- concentration at 5 min ([2]; 168 µg per insect): 4500 ng/mL

Reference: patent publication US9194864B2, “Screening methods employing insects with blood brain barrier” (Entomopharm ApS, priority 2008, dated 2015)
